Assay results: US20150314007A1, “LINKER-PAYLOAD MOLECULE CONJUGATES” (GLYKOS FINLAND OY, priority 2012, published 2015)
Where a SMILES comes first, the peptide text is derived from it. [ ]: non-standard residue; d: D form. The star is where a group is joined. Dolaproine = CO[C@@H]([C@@H]1CCCN1)[C@@H](C)C(=O)O; Dil = CC[C@H](C)[C@H](NC)[C@@H](CC(=O)O)OC; Doe = c1ccc(C[C@H](N*)c2nccs2)cc1; NMeV = CN[C@H](C(=O)O)C(C)C

Tested on: Human ovarian cancer cell line SKOV-3
Assay: In vitro cytotoxicity, SKOV-3 cell viability (PrestoBlue)
Details: for cytotoxicity compared with 1 (MMAF): SKOV-3, applied to the cell culture medium; for cytotoxicity compared with 2 (monomethyldolastatin 10): SKOV-3
[1] = SKOV-3, 96 h, concentration range wherein viability falls to 50%, measured range 1 nM-10 μM

Description: Human ovarian cancer cell line SKOV-3 was from the ATCC (Manassas, Va., USA). The cells were grown according to the manufacturer's recommendations. Log phase cultures were collected and 5000 cells/well were seeded onto 96-well plates and incubated for 24 h. Serial dilutions of test molecules from a stock solution of 100 μM in 10% DMSO were made in cell culture medium, added to cells (maximum concentration of dimethylsulphoxide was 1%) and cultures were incubated further for 96 h. Cell viability was evaluated using PrestoBlue cell viability reagent (Life Technologies, Carlsbad, Calif., USA) according to the manufacturer's instructions. Cells were incubated for 2 h, and dye reduction was measured by absorbance at 570 nm. The compounds were assayed 1-2 times in triplicate.

Compound	IC50 [1] [nM]	IC50 (Homo sapiens, SK-OV-3, 96 h) [nM]	cytotoxicity compared with 1 (MMAF)	cytotoxicity compared with 2 (monomethyldolastatin 10)
CC[C@H](C)[C@@H]([C@@H](CC(=O)N1CCC[C@H]1[C@H](OC)[C@@H](C)C(=O)N[C@@H](Cc1ccccc1)C(=O)O)OC)N(C)C(=O)[C@@H](NC(=O)[C@@H](NC)C(C)C)C(C)C [Compound 1, Monomethylauristatin F, reference compound] (HELM PEPTIDE1{[meV].V.[CC[C@H](C)[C@@H]([C@@H](CC(=O)[*:2])OC)N(C)[*:1]].[CO[C@H]([C@@H](C)C(=O)[*:2])[C@@H]1CCCN1[*:1]].F}$$$$V2.0)	100 to 1000	–	–	–
CC[C@H](C)[C@@H]([C@@H](CC(=O)N1CCC[C@H]1[C@H](OC)[C@@H](C)C(=O)N[C@@H](Cc1ccccc1)c1nccs1)OC)N(C)C(=O)[C@@H](NC(=O)[C@@H](NC)C(C)C)C(C)C [Compound 2, monomethyldolastatin 10, reference compound] (H-[NMeV]V[Dil][Dolaproine]-Doe)	< 1	–	–	–
CCC(C)C(C(CC(=O)N1CCCC1C(OC)C(C)C(=O)NC(Cc1ccccc1)C(=O)O)OC)N(C)C(=O)C(NC(=O)C(C(C)C)N(C)CCC(O)C(O)C(O)CO)C(C)C [Compound 5, N-(2-deoxy-D-glucosyl)-MMAF]	–	1000	equally or only slightly less cytotoxic	–
C#CCCN(C)C(C(=O)NC(C(=O)N(C)C(C(C)CC)C(CC(=O)N1CCCC1C(OC)C(C)C(=O)NC(Cc1ccccc1)C(=O)O)OC)C(C)C)C(C)C (centres unmarked) [Compound 6, N-(3-butynyl)-MMAF]	–	< 1	more cytotoxic	–
CCC(C)C(C(CC(=O)N1CCCC1C(OC)C(C)C(=O)NC(Cc1ccccc1)C(=O)O)OC)N(C)C(=O)C(NC(=O)C(C(C)C)N(C)CC(O)C(O)C(O)C(O)COC1OC(CO)C(O)C(O)C1O)C(C)C [Compound 8, N-[6-O-(β-D-galactopyranosyl)-D-galactosyl]-MMAF]	–	1000 to 10000	less cytotoxic	–
CCC(C)C(C(CC(=O)N1CCCC1C(OC)C(C)C(=O)NC(Cc1ccccc1)C(=O)O)OC)N(C)C(=O)C(NC(=O)C(C(C)C)N(C)CC(O)C(O)C(OC1OC(CO)C(OC2OC(CO)C(O)C(O)C2O)C(O)C1O)C(O)CO)C(C)C [Compound 10, N-{4-O-[4-O-(α-D-galactopyranosyl)-β-D-galactopyranosyl]-D-glucosyl}-MMAF]	–	1000 to 10000	–	–
CCC(C)C(C(CC(=O)N1CCCC1C(OC)C(C)C(=O)NC(Cc1ccccc1)C(=O)O)OC)N(C)C(=O)C(NC(=O)C(C(C)C)N(C)CC(O)C(O)C(OC1OC(CO)C(O)C(OC2(C(=O)O)CC(O)C(NC(C)=O)C(C(O)C(O)CO)O2)C1O)C(O)CO)C(C)C [Compound 11, N-{4-O-[3-O-(α-N-acetylneuraminyl)-β-D-galactopyranosyl]-D-glucosyl}-MMAF]	–	> 10000	less cytotoxic	–
CCC(C)C(C(CC(=O)N1CCCC1C(OC)C(C)C(=O)NC(Cc1ccccc1)c1nccs1)OC)N(C)C(=O)C(NC(=O)C(C(C)C)N(C)CC(O)C(O)C(O)C(O)CN=[N+]=[N-])C(C)C [Compound 13, N-(6-azido-6-deoxy-D-galactosyl)-dolastatin 10]	–	< 1	–	equally or only slightly less cytotoxic
N-(6-O-propargyl-D-galactosyl)-MMAF [Compound 3]	100 to 10000	–	–	–
N-(6-azido-6-deoxy-D-galactosyl)-MMAF [Compound 4]	100 to 1000	–	–	–
N-glutaryl-MMAF [Compound 14b]	100 to 1000	–	–	equally or only slightly less cytotoxic
